Source: US12465065B2, “Method of preparing beverages with enhanced sweetness with cyclamate” (The Coca-Cola Company, priority 2017, dated 2025)
Read-outs that look alike come from different tables or passages of the source.

Experiments:
[1] = Taste evaluation, sweetness compared to control sucrose acidic water solutions (Example 1); format: in vivo, human; details: samples with 320 ppm rebaudioside M in acidic water (citric acid); one panelist; controls 8%, 9%, 10% sucrose
Description: The panelist was instructed to sip, evaluate the sweetness, and then spit the sample in cups provided for that purpose.

[2] = 30 ppm cyclamate in acidic water; one panelist
Description: (§1) Ingredients were added to water while stirring until solids were visibly dissolved and the sample was poured into a glass bottle and stored at 4° C.
(§2) Taste tests were carried out with one panelist. Bottles were removed from the refrigerator and about 25 ml of beverage was poured into 4 oz-plastic cups. The panelist was given mineral water to rinse their mouth before tasting and between tasting different samples. Unsalted crackers were also given to eat followed by rinsing the mouth with mineral water before tasting the next sample.
(§3) Initially, the panelist was asked to determine the sweetness of the 30 ppm of cyclamate (Table 1).
The panelist was asked to compare the taste profile of (i) a sample of 150 ppm rebaudioside M in acidic water and (ii) a sample of 150 ppm rebaudioside M and 30 ppm cyclamate (below the sweetness recognition threshold concentration) in acidic water. The panelist was asked to compare the sweetness and taste profiles of the two samples.

[3] = 30 ppm cyclamate in acidic water; one panelist; remark: listed apart in the source
Description: as §1, §2, §3

Row | Structure (SMILES) | sweetness compared to control sucrose acidic water solutions [1] [%] | sweetness of cyclamate alone [2] | sweetness of cyclamate alone [3]
1 | C=C1C[C@@]23CC[C@H]4[C@@](C)(CCC[C@@]4(C)C(=O)O[C@@H]4O[C@H](CO)[C@@H](O)[C@H](O[C@@H]5O[C@H](CO)[C@@H](O)[C@H](O)[C@H]5O)[C@H]4O[C@@H]4O[C@H](CO)[C@@H](O)[C@H](O)[C@H]4O)[C@@H]2CC[C@]1(O[C@@H]1O[C@H](CO)[C@@H](O)[C@H](O[C@@H]2O[C@H](CO)[C@@H](O)[C@H](O)[C@H]2O)[C@H]1O[C@@H]1O[C@H](CO)[C@@H](O)[C@H](O)[C@H]1O)C3 [rebaudioside M] | < 8 | – | –
2 | O=S(=O)([O-])NC1CCCCC1.[Na+] [cyclamate, sodium cyclamate] | – | not sweet | not sweet
